ChEMBL document CHEMBL1156829 (Proc Natl Acad Sci U S A, 2008)
Values joined by “and” are separate entries in the source; they are usually repeats but may differ in a detail not shown here. Identical values can stand only once. Counter-ions that a name gives are not always drawn. Numbered stars: 1 amine (or outer) side, 2 acyl side, 3 side chain; on linkers, the order of the positions; unused ones are H or OH. Bridge positions count the residues as written; N and C are the ends. Square brackets hold non-standard residues; d marks the D form. Peptide text beside a SMILES is read from it. I, II: the chains in the order shown. Actinocin(1to9) = Cc1c2oc3c(C)ccc(C(=O)[*:2])c3nc-2c(C(=O)[*:1])c(N)c1=O; NMeV = CN[C@H](C(=O)O)C(C)C; Sar = CNCC(=O)O

What was measured:
[1] = tested on: Plasmodium falciparum; assay: NOVARTIS: Inhibition of Plasmodium falciparum W2 (drug-resistant) proliferation in erythrocyte-based infection assay; type: functional, organism-based; settings: read-out: EC50
[2] = tested on: Huh-7; assay: (§1) NOVARTIS: Cytotoxicity against human hepatocellular carcinoma cell line (Huh7); type: toxicity, cell-based
[3] = tested on: Plasmodium falciparum; assay: NOVARTIS: Inhibition of Plasmodium falciparum 3D7 (drug-susceptible) proliferation in erythrocyte-based infection assay; type: functional, organism-based
[4] = as §1; type: toxicity, cell-based, Huh-7; settings: Huh7 cells (hepatocellular carcinoma cell line)

## CC[n+]1c(C=CN(C)c2ccccc2)sc2ccc(OC)cc21.[O-][Cl+3]([O-])([O-])[O-]
[1]; Plasmodium falciparum, W2
  EC50: 0.255 µM
[2]; huh-7, read-out: CC50
  CC50: > 100 µM
[3]; Plasmodium falciparum, 3D7
  EC50: 0.145 µM

## CN(C)c1ccc(C=CC=Cc2cccc[n+]2C)cc1.[O-][Cl+3]([O-])([O-])[O-]
[1]; Plasmodium falciparum, W2
  EC50: 0.178 µM
[2]; huh-7, read-out: CC50
  CC50: > 100 µM
[3]; Plasmodium falciparum, 3D7
  EC50: 0.283 µM

## CN(C)c1ccc(C=CC=Cc2cc[n+](C)cc2)cc1.[O-][Cl+3]([O-])([O-])[O-]
[1]; Plasmodium falciparum, W2
  EC50: 0.532 µM
[2]; huh-7, read-out: CC50
  CC50: > 100 µM
[3]; Plasmodium falciparum, 3D7
  EC50: 0.77 µM

## Cc1cc(=O)n(-c2nc(-c3ccccc3O)nc3ccccc23)[nH]1
[1]; Plasmodium falciparum, W2
  EC50: 0.752 µM
[2]; huh-7
  CC50: No fit
[3]; Plasmodium falciparum, 3D7
  EC50: 0.824 µM

## OC(CN1CCN(C/C=C/c2ccccc2)CC1)Cn1c2ccc(Cl)cc2c2cc(Cl)ccc21 (stereo not drawn)
[1]; Plasmodium falciparum, W2
  EC50: 0.162 µM
[2]; huh-7
  CC50: No fit
[3]; Plasmodium falciparum, 3D7
  EC50: 0.66 µM

## CCN1C(=Cc2sc3ccc(O)cc3[n+]2CC)C=Cc2cc(C)ccc21
[1]; Plasmodium falciparum, W2
  EC50: 0.291 µM
[1]
  EC50: 0.383 µM
[4]
  CC50: 5.79 µM
[2]; huh-7, read-out: CC50
  CC50: > 10 µM
[3]
  EC50: 0.188 µM and 0.376 µM

## Cc1nn(CC(O)Cn2c3ccc(Cl)cc3c3cc(Cl)ccc32)c(C)c1Br (stereo not drawn)
[1]; Plasmodium falciparum, W2
  EC50: 0.19 µM
[2]; huh-7
  CC50: No fit
[3]; Plasmodium falciparum, 3D7
  EC50: 0.602 µM

## COC(=O)C1=CN(Cc2ccc(OC)cc2)C=C(C(=O)OC)C1c1cccc([N+](=O)[O-])c1
[1]; Plasmodium falciparum, W2
  EC50: > 1.25 µM
[2]; huh-7
  CC50: No fit
[3]; Plasmodium falciparum, 3D7
  EC50: 2.12 µM

## CCCCN1C(=Cc2cccc[n+]2C)Sc2cc(NC(C)=O)ccc21
[1]
  EC50: > 1.25 µM
[2]; huh-7, read-out: CC50
  CC50: > 10 µM
[3]; Plasmodium falciparum, 3D7
  EC50: > 1.11 µM

## C=CC[n+]1c(C=C2C=CC=CN2C)sc2ccccc21
[1]
  EC50: > 1.01 µM
[2]; huh-7, read-out: CC50
  CC50: > 10 µM
[3]; Plasmodium falciparum, 3D7
  EC50: 0.491 µM

## CN(C)c1ccc(C=CC=Cc2cccc[n+]2C)cc1
[1]; Plasmodium falciparum, W2
  EC50: < 0.00847 µM
[2]; huh-7, read-out: CC50
  CC50: > 10 µM
[3]; Plasmodium falciparum, 3D7
  EC50: 0.108 µM

## CCN1/C(=C/c2ccc3ccccc3[n+]2CC)Sc2c1ccc1ccccc21
[1]
  EC50: 0.682 µM and > 0.621 µM and 0.212 µM
[4]
  CC50: > 10 µM
[2]; huh-7, read-out: CC50
  CC50: 7.14 µM
[3]
  EC50: 0.225 µM and 0.631 µM and 0.334 µM

## CC[n+]1c(/C=C/N2CCCc3ccccc32)ccc2ccccc21
[1]; Plasmodium falciparum, W2
  EC50: 0.145 µM
[2]; huh-7, read-out: CC50
  CC50: 2.34 µM
[3]; Plasmodium falciparum, 3D7
  EC50: 0.0757 µM

## Cc1[nH]c2ccccc2c1/C=C/c1cc[n+](C)cc1
[1]; Plasmodium falciparum, W2
  EC50: 0.116 µM
[2]; huh-7, read-out: CC50
  CC50: > 10 µM
[3]; Plasmodium falciparum, 3D7
  EC50: 0.259 µM

## CCn1c(C=CN(C(C)=O)c2ccccc2)[n+](CC)c2cc(Cl)ccc21
[1]; Plasmodium falciparum, W2
  EC50: > 1.06 µM
[2]; huh-7, read-out: CC50
  CC50: > 10 µM
[3]; Plasmodium falciparum, 3D7
  EC50: > 1.65 µM

## O=C(NCCc1ccccc1)C1CCC(Cn2c(=S)[nH]c3ccccc3c2=O)CC1 (stereo not drawn)
[1]; Plasmodium falciparum, W2
  EC50: 1.75 µM
[2]; huh-7
  CC50: No fit
[3]; Plasmodium falciparum, 3D7
  EC50: > 1.65 µM

## C[n+]1c2ccccc2nc2ccc(NCCc3cnc[nH]3)cc21
[1]; Plasmodium falciparum, W2
  EC50: 0.405 µM
[2]; huh-7
  CC50: No fit
[3]; Plasmodium falciparum, 3D7
  EC50: 0.139 µM

## CCN1/C(=C/c2cccc[n+]2C)Sc2ccc(OC)cc21
[1]
  EC50: > 0.867 µM and 0.304 µM
[2]; huh-7, read-out: CC50
  CC50: > 100 µM
[3]; Plasmodium falciparum, 3D7
  EC50: 0.207 µM

## CC[n+]1c(C=CC=C2N(C)c3ccccc3C2(C)C)sc2ccccc21.[O-][Cl+3]([O-])([O-])[O-]
[1]; Plasmodium falciparum, W2
  EC50: 0.177 µM
[2]; huh-7, read-out: CC50
  CC50: 1.63 µM
[3]; Plasmodium falciparum, 3D7
  EC50: 0.149 µM

## CCN1/C(=C/C=C/c2sc3ccccc3[n+]2CC)Sc2ccccc21 [ALAZANINE]
[1]
  EC50: 1.06 µM
[2]; huh-7, read-out: CC50
  CC50: 27 µM
[3]; Plasmodium falciparum, 3D7
  EC50: 0.2 µM

## Cc1c2oc3c(C)ccc(C(=O)N[C@@H]4C(=O)N[C@H](C(C)C)C(=O)N5CCC[C@H]5C(=O)N(C)CC(=O)N(C)[C@@H](C(C)C)C(=O)O[C@@H]4C)c3nc-2c(C(=O)N[C@@H]2C(=O)N[C@H](C(C)C)C(=O)N3CCC[C@H]3C(=O)N(C)CC(=O)N(C)[C@@H](C(C)C)C(=O)O[C@@H]2C)c(N)c1=O [DACTINOMYCIN] (I: T[dV]P[Sar][NMeV] / II: T[dV]P[Sar][NMeV]; ester I:1-I:C, II:1-II:C; linker I:N-II:N via Actinocin(1to9))
[1]; Plasmodium falciparum, W2
  EC50: 0.214 µM
[1]
  EC50: 0.395 µM
[2]; huh-7, read-out: CC50
  CC50: 4.18 µM and > 10 µM
[3]
  EC50: 0.323 µM and 0.807 µM

## CCOc1ccc2nccc([C@@H](O)[C@@H]3C[C@@H]4CCN3C[C@@H]4CC)c2c1 [ETHYLHYDROCUPREINE HYDROCHLORIDE]
[1]
  EC50: < 0.00348 µM
[2]; huh-7, read-out: CC50
  CC50: > 10 µM
[3]
  EC50: 0.039 µM

## CCOc1ccc2nccc([C@@H](O)[C@@H]3C[C@@H]4CCN3C[C@@H]4CC)c2c1 [ETHYLHYDROCUPREINE]
[1]
  EC50: 0.0257 µM
[2]; huh-7, read-out: CC50
  CC50: 53.8 µM
[3]; Plasmodium falciparum, 3D7
  EC50: 0.0318 µM
